From publication PMC6628648, “Enabling microbial syringol conversion through structure-guided protein engineering” (Proceedings of the National Academy of Sciences of the …, 2019)

What was measured:
[1] = biological target: T1, WT GcoA (Amycolatopsis sp., UniProt P0DPQ7); test: biochemical; type: binding, Amycolatopsis sp. ATCC 39116; settings: for %Fe(III) spin state conversion: WT GcoA, final high-spin (388 nm) divided by starting low-spin (417 nm)
T1 construct: GST (N, cleaved yes); made in house; host or cells: E. coli Rosetta 2 (DE3)

[2] = biological target: T2, GcoA variant F169V (Amycolatopsis sp., UniProt P0DPQ7, F169V); test: NADH consumption assay (specific activity) with GcoB; type: biochemical, Amycolatopsis sp. ATCC 39116; settings: saturating (200 µM) substrate, pH 7.5, 25°C
T2 construct: GST (N, cleaved yes); made in house; host or cells: E. coli Rosetta 2 (DE3)

[3] = biological target: T3, GcoA variant F169H (Amycolatopsis sp., UniProt P0DPQ7, F169H); test: as above; type: biochemical, Amycolatopsis sp. ATCC 39116; settings: saturating (200 µM) substrate, pH 7.5, 25°C
T3 construct: GST (N, cleaved yes); made in house; host or cells: E. coli Rosetta 2 (DE3)

[4] = biological target: T4, GcoA variant F169I (Amycolatopsis sp., UniProt P0DPQ7, F169I); test: as above; type: biochemical, Amycolatopsis sp. ATCC 39116; settings: saturating (200 µM) substrate, pH 7.5, 25°C
T4 construct: GST (N, cleaved yes); made in house; host or cells: E. coli Rosetta 2 (DE3)

[5] = biological target: T3, GcoA variant F169H; test: End-point coupling assay (formaldehyde produced per NADH consumed); type: biochemical, Amycolatopsis sp. ATCC 39116; settings: molar ratio formaldehyde produced per NADH consumed, 200 µM NADH, 200 µM aromatic substrate
Description: (§1) The [formaldehyde] produced on reaction with GcoA-F169A and substrates was determined using a colorimetric assay with tryptophan ([28], [42]); details are provided in SI Appendix. […]
(§2) vi = Vmax[S]/(KM + [S]) (4) […]
(§3) Formaldehyde determination. A colorimetric assay using tryptophan can be used to quantify the amount of formaldehyde produced in F169 GcoA/B reactions with guaiacol, syringol, or 3MC. 0.2 µM each of F169 GcoA mutants and GcoB were dissolved in air-saturated buffer (25 mM HEPES, 50 mM NaCl) in a cuvette at pH 7.5, 25 °C. 100 µg/mL catalase was added to each reaction to capture any H2O2 formed during the uncoupled reaction. 200 μM NADH was added and the background rate recorded. 100 (guaiacol, syringol, or 3MC) or 200 (syringol) μM of substrate was then added and the reaction monitored until there was no more change, due to either substrate, NADH or O2 depletion, whichever occurred first. 200 µL of the reaction was then quenched by adding 200 µL of a 0.1% tryptophan solution in 50% ethanol and 200 µL of 90% sulfuric acid. Upon thorough mixing, 40 µL of 1% FeCl3 was added. The solution was then incubated in a heating block for 90 min at 70 °C. After cooling, the absorbance was read at 575 nm and the [formaldehyde] calculated by using ε575 nm = 4.2 mM-1 cm-1, obtained with formaldehyde as a standard (1). A negative control included everything but the substrate and was used as a baseline. […]
(§4) The reaction of each aliquot was immediately quenched with 12.5
(§5) μL saturated ammonium sulfate, 7% v/v H2SO4 (pH 2.0) prior to loading onto the HPLC column. [Substrate] disappearance was referenced to GcoA (0.2 µM) and fit to a linear line to determine specific activity.
(§6) Data analysis. The consumption of NADH and subsequent production of formaldehyde and aromatic product were measured in triplicate and the error reported as ±1 standard deviation. To determine the statistical significance between NADH consumption and the products produced, the p-value was determined for all runs containing guaiacol, syringol, and 3MC. These values were calculated using two degrees of freedom, a tail value of two, and assuming a t-statistical value for unequal variances.
(§7) Detection of H2O2 via horseradish peroxidase (HRP) and Amplex Red assay. The reaction between 100 μM guaiacol or 3MC with 0.2 μM F169A/GcoB and 100 μM NADH in air-saturated buffer (25 mM HEPES, 50 mM NaCl, pH 7.5) was monitored continuously in a quartz cuvette, using the NADH consumption assay described above. The same thing was done for syringol, but with either 100 or 200 μM NADH. When there was no longer any change in the spectra, e.g., the reaction was completed, 100 μL was removed from the cuvette and pipetted into a 96-well microplate. A 5 mL solution containing 50 μL of 10 mM Amplex Red (prepared in DMSO and stored at -20 °C) and 100 μL of 10 U/mL HRP was made up in the above buffer. 100 μL of this was added to each of the wells with each reaction sample. The plate was incubated in the dark at room temperature for 30 min, at which point the absorbance at […]
(§8) Table S1. Rate of substrate disappearance or product appearance (specific activity) for F169A.
(§9) Substrate NADH disappearance aromatic substrate disappearance KD (µM) […]
(§10) Table S2. Rates of substrate disappearance and coupling efficiencies for reactions catalyzed by the GcoA-F169 variants.
(§11) GcoA Specific activity Coupling Specific activity Coupling Specific activity (μmol Coupling variant (μmol sec-1 μmol-1 efficiency (μmol sec-1 μmol-1 efficiency sec-1 μmol-1 GcoA)a efficiency GcoA)a (%)b GcoA)a (%)b (%)b […]
(§12) aNADH consumption was monitored continuously over time via UV/vis and quantifying with ε340 = 6.22 mM-1 cm-1 at 25°C, 25 mM HEPES, 50 mM NaCl, pH 7.5 and saturating (200 µM) concentrations of all substrates (syringol, guaiacol, and 3MC). bCalculated as the molar ratio of formaldehyde produced per NADH consumed in a fixed-time assay. Assay conditions: 0.2 µM […]

[6] = biological target: T4, GcoA variant F169I; test: as above; type: biochemical, Amycolatopsis sp. ATCC 39116; settings: molar ratio formaldehyde produced per NADH consumed, 200 µM NADH, 200 µM aromatic substrate
Description: as §1, §2, §3, §4, §5, §6, §7, §8, §9, §10, §11, §12

[7] = biological target: T5, GcoA variant F169L (Amycolatopsis sp., UniProt P0DPQ7, F169L); test: as above; type: biochemical, Amycolatopsis sp. ATCC 39116; settings: molar ratio formaldehyde produced per NADH consumed, 200 µM NADH, 200 µM aromatic substrate
T5 construct: GST (N, cleaved yes); made in house; host or cells: E. coli Rosetta 2 (DE3)
Description: as §1, §2, §3, §4, §5, §6, §7, §8, §9, §10, §11, §12

[8] = biological target: T6, GcoA variant F169S (Amycolatopsis sp., UniProt P0DPQ7, F169S); test: as above; type: biochemical, Amycolatopsis sp. ATCC 39116; settings: molar ratio formaldehyde produced per NADH consumed, 200 µM NADH, 200 µM aromatic substrate
T6 construct: GST (N, cleaved yes); made in house; host or cells: E. coli Rosetta 2 (DE3)
Description: as §1, §2, §3, §4, §5, §6, §7, §8, §9, §10, §11, §12

[9] = biological target: T2, GcoA variant F169V; test: as above; type: biochemical, Amycolatopsis sp. ATCC 39116; settings: molar ratio formaldehyde produced per NADH consumed, 200 µM NADH, 200 µM aromatic substrate
Description: as §1, §2, §3, §4, §5, §6, §7, §8, §9, §10, §11, §12

[10] = biological target: GcoA-F169A (Amycolatopsis sp., UniProt P0DPQ7, F169A); test: NADH consumption assay (steady-state kinetics, specific activity) with GcoB; settings: for Specific activity: NADH consumption, saturating (200 µM) substrate, pH 7.5, 25°C; for NADH disappearance (specific activity): Table S1, saturating substrate
Chain of GcoA-F169A (P0DPQ7 whole entry F169A): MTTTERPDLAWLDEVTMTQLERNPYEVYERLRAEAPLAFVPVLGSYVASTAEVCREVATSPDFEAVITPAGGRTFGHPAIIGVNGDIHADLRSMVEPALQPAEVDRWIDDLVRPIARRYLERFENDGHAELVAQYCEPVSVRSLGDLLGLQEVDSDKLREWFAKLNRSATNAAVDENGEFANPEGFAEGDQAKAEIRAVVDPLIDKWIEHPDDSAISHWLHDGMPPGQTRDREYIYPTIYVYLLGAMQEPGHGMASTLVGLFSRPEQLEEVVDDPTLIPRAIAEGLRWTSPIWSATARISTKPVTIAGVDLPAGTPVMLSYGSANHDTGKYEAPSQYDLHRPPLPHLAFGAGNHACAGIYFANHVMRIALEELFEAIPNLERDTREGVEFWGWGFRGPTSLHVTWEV

T5 sequence (P0DPQ7 whole entry F169L): as the sequence (P0DPQ7 whole entry F169A) above, with A169L counted along it
T4 sequence (P0DPQ7 whole entry F169I): as the sequence (P0DPQ7 whole entry F169A) above, with A169I counted along it
T6 sequence (P0DPQ7 whole entry F169S): as the sequence (P0DPQ7 whole entry F169A) above, with A169S counted along it
T1 sequence (P0DPQ7 whole entry): as the sequence (P0DPQ7 whole entry F169A) above, with A169F counted along it
T3 sequence (P0DPQ7 whole entry F169H): as the sequence (P0DPQ7 whole entry F169A) above, with A169H counted along it
T2 sequence (P0DPQ7 whole entry F169V): as the sequence (P0DPQ7 whole entry F169A) above, with A169V counted along it

| Structure (SMILES) | %Fe(III) spin state conversion [1] [%] | Specific activity [2] [μmol sec-1 μmol-1 GcoA] | Specific activity [3] [μmol sec-1 μmol-1 GcoA] | Specific activity [4] [μmol sec-1 μmol-1 GcoA] | Coupling efficiency [5] [%] | Coupling efficiency [6] [%] | Coupling efficiency [7] [%] | Coupling efficiency [8] [%] | Coupling efficiency [9] [%] | Specific activity [10] [μmol sec-1 μmol-1 GcoA] | NADH disappearance (specific activity) [10] [μM s-1 μmol F169A-1] | Kd [1] [nM] |
| --- | --- | --- | --- | --- | --- | --- | --- | --- | --- | --- | --- | --- |
| COc1cccc(O)c1O [3MC, 3-methoxycatechol] | 62 ± 0.01 | 5.7 ± 0.3 | 4.3 ± 0.4 | 1.1 ± 0.7 | 28 ± 20 | 10 ± 9 | 5.0 ± 4 | 67 ± 8 | 40 ± 3 | 5.6 ± 0.8 | 5.6 ± 0.8 |  |
| COc1ccccc1O [guaiacol, 2-methoxyphenol] | 87 ± 1 | 5.3 ± 0.2 | 7.9 ± 3 | 1.4 ± 0.2 | 103 ± 10 | 41 ± 10 | 73 ± 3 | 67 ± 8 | 105 ± 2 | 5.8 ± 0.8 | 5.8 ± 0.8 | 6.5 ± 2 |
| COc1cccc(OC)c1O [syringol, 2,6-dimethoxyphenol] | 56 ± 2 | 4.1 ± 0.8 | 3.9 ± 0.2 | 0.56 ± 0.2 | 56 ± 7 | 14 ± 2 | 7.8 ± 2 | 85 ± 5 | 100 ± 10 | 5.1 ± 0.8 | 5.1 ± 0.8 |  |
